Reference: the OligoGym collection
Where “and” joins values, the source holds several entries; their conditions need not be identical. Equal values may be shown once. After the bases stand the sugars from the 5' end (letter, count) and the backbone: PS all phosphorothioate, else s phosphorothioate and o phosphodiester by linkage. Methylation of C is not given here. e = 2'-O-(2-methoxyethyl) (MOE); k = constrained ethyl (cEt); d = 2'-deoxy (DNA)

These sequences were tested against MALAT1. Conditions: ASO, A431, 0.005 µM.

Sequence | target mRNA inhibition
AAAACTTATCTGCGGT (sugars k3 d10 k3, PS) | 54% and 41%
AAAAGTAGTTCTTCGG (sugars k3 d10 k3, PS) | 18%
AAACATTGCCTACCAC (sugars k3 d10 k3, PS) | -9%
AAACCTGGGCTCCCGG (sugars k3 d10 k3, PS) | 20%
AAAGATCGCCTTCAAA (sugars k3 d10 k3, PS) | 32%
AAATACGACTGCTTAA (sugars k3 d10 k3, PS) | 22%
AAATCATTGGGAGTTA (sugars k3 d10 k3, PS) | 24%
AAATCCCCTAGGGAAG (sugars k3 d10 k3, PS) | -8%
AAATCCCTTTACACCT (sugars k3 d10 k3, PS) | 23%
AAATCCTGATCTGGTC (sugars k3 d10 k3, PS) | 27%
AAATCGGAGCAGCACG (sugars k3 d10 k3, PS) | 16%
AAATGGCGGACTTTCT (sugars k3 d10 k3, PS) | 17%
AAATTACACCAGTCCT (sugars k3 d10 k3, PS) | 45%
AAATTGCACTCGCTCC (sugars k3 d10 k3, PS) | 28%
AACAACTCGCATCACC (sugars k3 d10 k3, PS) | 17%
AACAAGTAAGCCCCAC (sugars k3 d10 k3, PS) | 11%
AACAATTACCTAAACC (sugars k3 d10 k3, PS) | 16%
AACAGGTCATCTATTC (sugars k3 d10 k3, PS) | 33%
AACATATTGCCGACCT (sugars k3 d10 k3, PS) | 45%
AACCACAACAATTTAG (sugars k3 d10 k3, PS) | 16%
AACCCCAAGACCAAAC (sugars k3 d10 k3, PS) | 11%
AACCTATTGACTATAT (sugars k3 d10 k3, PS) | 19%
AACGAAACATTGGCAC (sugars k3 d10 k3, PS) | 48%
AACGGGTCATCAAACA (sugars k3 d10 k3, PS) | -25%
AACTAGCACCTGCAGA (sugars k3 d10 k3, PS) | 17%
AACTTATCTGTTAACA (sugars k3 d10 k3, PS) | 30%

Sequence | target mRNA inhibition
AACTTGGAAGTTGATA (sugars k3 d10 k3, PS) | 19%
AAGACTAAAGGCTTCA (sugars k3 d10 k3, PS) | 21%
AAGAGCATTGGAGATC (sugars k3 d10 k3, PS) | 33%
AAGCACTTATCCCTAA (sugars k3 d10 k3, PS) | 25%
AAGCATTCCTTCGGAT (sugars k3 d10 k3, PS) | -8%
AAGCATTGCCCTTCTA (sugars k3 d10 k3, PS) | 46%
AAGCCCACCCTCTAAG (sugars k3 d10 k3, PS) | 21%
AAGCCGCCTGCTACCT (sugars k3 d10 k3, PS) | -16%
AAGCTACAACAAGTAA (sugars k3 d10 k3, PS) | 10%
AAGGCTCCATGGTTGT (sugars k3 d10 k3, PS) | 32%
AAGTAGACCAACTAAG (sugars k3 d10 k3, PS) | -22%
AAGTATTACTCTAATC (sugars k3 d10 k3, PS) | 9%
AAGTGCTCACAAGGCA (sugars k3 d10 k3, PS) | -16%
AAGTGGTTGCCCGCTT (sugars k3 d10 k3, PS) | 22%
AATACTTCATTACCCC (sugars k3 d10 k3, PS) | 45%
AATCACTACTCCAAGC (sugars k3 d10 k3, PS) | 29%
AATCATACTCCAGTCG (sugars k3 d10 k3, PS) | 35%
AATCCCCCCCAAGATT (sugars k3 d10 k3, PS) | -5%
AATCCTGATCTGGTCC (sugars k3 d10 k3, PS) | 46% and 66%
AATCGCACTGGCTCCT (sugars k3 d10 k3, PS) | 25%
AATCGCCATGGAAAGC (sugars k3 d10 k3, PS) | -4%
AATGACGCAATTCTCC (sugars k3 d10 k3, PS) | 21%
AATGGTAGATTCCGTA (sugars k3 d10 k3, PS) | 47%
AATTAATGCACTGGTA (sugars k3 d10 k3, PS) | 19%
AATTACACCAGTCCTT (sugars k3 d10 k3, PS) | 42%
AATTACCTAAACCCAC (sugars k3 d10 k3, PS) | 0%

Sequence | target mRNA inhibition
AATTGCACTCGCTCCT (sugars k3 d10 k3, PS) | 29%
ACAAATACGACTGCTT (sugars k3 d10 k3, PS) | 16%
ACAAGGCAAATCGCCA (sugars k3 d10 k3, PS) | 17%
ACACCTTGAGTCATTT (sugars k3 d10 k3, PS) | 50%
ACAGGAAGGCTCCATG (sugars k3 d10 k3, PS) | 25%
ACATTAAGTTGGTAAT (sugars k3 d10 k3, PS) | 4%
ACATTGCCTACCACTC (sugars k3 d10 k3, PS) | 16%
ACCAAATCGCACTGGC (sugars k3 d10 k3, PS) | 3%
ACCACTCGCTTTCCCT (sugars k3 d10 k3, PS) | 35%
ACCCAGTGGCTCATAT (sugars k3 d10 k3, PS) | 16%
ACCCCCGGAACTTTTA (sugars k3 d10 k3, PS) | 9%
ACCGGAGCAGGAAGAA (sugars k3 d10 k3, PS) | 4%
ACCTAAACCCACCCCA (sugars k3 d10 k3, PS) | -1%
ACCTTAACATCTTGTT (sugars k3 d10 k3, PS) | 15%
ACCTTCATCACCAAAT (sugars k3 d10 k3, PS) | 22%
ACGAAAGTCCTTCACA (sugars k3 d10 k3, PS) | 11%
ACGCAACTGAGCCCCA (sugars k3 d10 k3, PS) | -44%
ACGCCTCAATCCCACA (sugars k3 d10 k3, PS) | 27%
ACGGAAATTTTTCTAC (sugars k3 d10 k3, PS) | 4%
ACGGCCCGCACGGAAA (sugars k3 d10 k3, PS) | 16%
ACGGTTGAGAAGTGGC (sugars k3 d10 k3, PS) | 22%
ACTAAACAATTACCTA (sugars k3 d10 k3, PS) | 9%
ACTAAGCGAATGGCTT (sugars k3 d10 k3, PS) | -9%
ACTACTCCAAGCATTG (sugars k3 d10 k3, PS) | 36%
ACTAGCACCTGCAGAG (sugars k3 d10 k3, PS) | 23%
ACTCAGAAGATGTTAT (sugars k3 d10 k3, PS) | 30%

Sequence | target mRNA inhibition
ACTCGCTTTCCCTGTG (sugars k3 d10 k3, PS) | 35%
ACTCTAATCACTGTCA (sugars k3 d10 k3, PS) | 35%
ACTCTGATCATAATCT (sugars k3 d10 k3, PS) | 35%
ACTGAACTGTTTAAAC (sugars k3 d10 k3, PS) | 6%
ACTGGATAAGTATTAT (sugars k3 d10 k3, PS) | 46%
ACTTATCTGTTAACAG (sugars k3 d10 k3, PS) | 25%
ACTTGGAAGTTGATAT (sugars k3 d10 k3, PS) | 4%
ACTTTAAATTGGTAGC (sugars k3 d10 k3, PS) | 28%
AGAACCACACACTACC (sugars k3 d10 k3, PS) | 23%
AGACCAACCCCCAGTT (sugars k3 d10 k3, PS) | 0%
AGACTAAAGGCTTCAG (sugars k3 d10 k3, PS) | 12%
AGAGCTACTTAGCTGT (sugars k3 d10 k3, PS) | 16%
AGAGGGAGTTGAGGCA (sugars k3 d10 k3, PS) | 40%
AGATAATGTTCTCATC (sugars k3 d10 k3, PS) | 11%
AGATATTGTGCTGTTA (sugars k3 d10 k3, PS) | 17%
AGATCGCCTTCAAATT (sugars k3 d10 k3, PS) | 41%
AGATGGACATTGCCTC (sugars k3 d10 k3, PS) | 48%
AGATTAGTAGTCAAAG (sugars k3 d10 k3, PS) | -12%
AGATTGCCCCAACACT (sugars k3 d10 k3, PS) | 38%
AGCAACTCTTCTGATA (sugars k3 d10 k3, PS) | 30%
AGCACCGCTTGAGATT (sugars k3 d10 k3, PS) | 42% and 20%
AGCAGTAGGGCTTCTC (sugars k3 d10 k3, PS) | 3%
AGCATACCTTAACATC (sugars k3 d10 k3, PS) | 19%
AGCCAAGCACTCATAT (sugars k3 d10 k3, PS) | 17%
AGCCACTCAAATGCCT (sugars k3 d10 k3, PS) | 28%

What follows are sequences tested against IRF4. Conditions: ASO, MM.1R, 1 µM.

Sequence | target mRNA inhibition
TTTATGTTAGCCAATT (sugars k3 d10 k3, PS) | 25% and 13%
TTTATGTTAGCCAATT (sugars kdddddddddkekeke, PS) | 5% and 14%
TTTATGTTAGCCAATT (sugars kkddddddddddkeke, PS) | 11% and -5%
TTTCAACTTGTGACCC (sugars k3 d10 k3, PS) | 1%
TTTCAGGAGCTAGTTT (sugars k3 d10 k3, PS) | 8%

Same assay, conditions: ASO, SK-MEL-28, 4 µM

Sequence | target mRNA inhibition [%]
TTTCAAATCGACTGCC (sugars k3 d10 k3, PS) | 31
TTTCATAGCTAGTTCA (sugars k3 d10 k3, PS) | 56
TTTTAAGGCCCTGTCA (sugars k3 d10 k3, PS) | 18
TTTTAGTTCATACCCA (sugars k3 d10 k3, PS) | 52
TTTTTCCATATGACCC (sugars k3 d10 k3, PS) | 75
